# Data published in patent publication US8993574B2, “Pyrrole antifungal agents” (F2G Ltd, priority 2008, dated 2015).
# Assays:
# Type in all cases: cell-based
# Aspergillus niger [1] = assay: MIC, RPMI medium; settings: MIC banded into grades; for MIC: Aspergillus niger, read-out: MIC grade, A. niger
# Method: (§1) Between 1 and 5 mgs of compound were accurately weighed out into a sterile Eppendorf tube. The compound was dissolved in DMSO to give a solution containing 5 mg/mL. Tubes were stored at −20° C. until required.
# (§2) On the day of testing thawed solutions were vortex mixed to ensure homogeneity. 30 μL of solution was removed and added to 570 μL of sterile water in a separate sterile Eppendorf. The thoroughly mixed solution was used to prepare a series of doubling dilutions in water, in a deep well plate. Thirteen replicate plates were prepared using a Minitrak by aspirating 20 μL from each well into eleven clear polystyrene 96 well plates.
# (§3) Assays were also performed in RPMI medium for both Aspergillus spp. (strains described above) and Candida spp. (Candida albicans, Candida glabrata, Candida krusei, Candida parapsilosis and Candida tropicalis). To perform MIC tests in this medium, dilutions of compounds are prepared in microtitre plates as described above. Fungal strains to be tested are grown and harvested in an identical manner to that described above, and each organism suspension was diluted in RPMI medium, containing 2% glucose and 0.135 M MOPS buffer (pH 7.0) to 0.5-2×10^4 cfu/mL, rather than in YAG medium. 80 μL of an organism suspension was added to each well of the plate containing drug dilutions.
# (§4) This produced MIC plates with a drug range 50-0.05 mg/L and organism inocula of 1−2×10^4 cfu/mL. All plates were incubated for 24-48 h at 35° C. Growth was assessed by monitoring the optical density at 485 nm for each well. The MIC of a compound is the lowest drug concentration that inhibits growth of an organism by >80% compared with a drug free control.
# (§5) The following organisms were tested: Aspergillus flavus, Aspergillus fumigatus AF293 and AF210, Aspergillus niger, Aspergillus terreus AT4 and AT49, Candida albicans, Candida glabrata, Candida krusei, Candida parapsilosis and Candida tropicalis.
# Aspergillus terreus AT49 [2] = assay: MIC, RPMI medium; settings: for MIC grade, A. terreus 49: MIC banded into grades; for MIC: Aspergillus terreus, AT49, MIC banded into grades, read-out: MIC grade, A. terreus 49
# Method: as §1, §2, §3, §4, §5
# [3] = system: Aspergillus fumigatus AF293; assay: MIC, RPMI medium; settings: for MIC grade, A. fumigatus: MIC banded into grades; for MIC: Aspergillus fumigatus, AF293, MIC banded into grades, read-out: MIC grade, A. fumigatus
# Method: as §1, §2, §3, §4, §5
# Aspergillus terreus AT4 [4] = assay: MIC, RPMI medium; settings: for MIC grade, A. terreus: MIC banded into grades; for MIC: Aspergillus terreus, AT4, MIC banded into grades, read-out: MIC grade, A. terreus
# Method: as §1, §2, §3, §4, §5
# [5] = system: Aspergillus fumigatus AF210; assay: MIC, RPMI medium; settings: for MIC grade, A. fumigatus 210: MIC banded into grades; for MIC: Aspergillus fumigatus, AF210, MIC banded into grades, read-out: MIC grade, A. fumigatus 210
# Method: as §1, §2, §3, §4, §5
# Aspergillus flavus [6] = assay: MIC, RPMI medium; settings: MIC banded into grades; for MIC: Aspergillus flavus, read-out: MIC grade, A. flavus
# Method: as §1, §2, §3, §4, §5
# Aspergillus niger [7] = assay: MIC, YAG medium; settings: 24 h at 35° C, MIC banded into grades; for MIC: Aspergillus niger, read-out: MIC grade, A. niger
# Method: as §1, §2
# (§6) Spores of Aspergillus spp. (Aspergillus fumigatus [two strains], Aspergillus terreus [two strains], Aspergillus niger and Aspergillus flavus) were harvested from cultures grown on Sabarauds agar for 5 days, and resuspended in PBS/Tween 80 to approx 1×10^7 cfu/mL. Each organism suspension was diluted in YAG medium (1% glucose, 1% ammonium chloride and 0.5% yeast extract) to 0.5−2×10^4 cfu/mL. 80 μL of an organism suspension was added to each well of the plate containing drug dilutions.
# as §4, with “cfu/mL for Aspergillus spp.” for “cfu/mL.”, “24” for “24-48”, “>70%” for “>80%”, “control. MICs are recorded as mg/L. In cases where the MIC of an organism is […] mg/L the MIC is repeated using a concentration range of 0.5-0.0005 mg/L.” for “control.”
# as §5
# Aspergillus terreus AT49 [8] = assay: MIC, YAG medium; settings: 24 h at 35° C, MIC banded into grades; for MIC: Aspergillus terreus, read-out: MIC grade, A. terreus 49
# Method: as §1, §2, §6
# as §4, with “cfu/mL for Aspergillus spp.” for “cfu/mL.”, “24” for “24-48”, “>70%” for “>80%”, “control. MICs are recorded as mg/L. In cases where the MIC of an organism is […] mg/L the MIC is repeated using a concentration range of 0.5-0.0005 mg/L.” for “control.”
# as §5
# [9] = system: Aspergillus fumigatus AF293; assay: MIC, YAG medium; settings: 24 h at 35° C, MIC banded into grades; for MIC: Aspergillus fumigatus, read-out: MIC grade, A. fumigatus
# Method: as §1, §2, §6
# as §4, with “cfu/mL for Aspergillus spp.” for “cfu/mL.”, “24” for “24-48”, “>70%” for “>80%”, “control. MICs are recorded as mg/L. In cases where the MIC of an organism is […] mg/L the MIC is repeated using a concentration range of 0.5-0.0005 mg/L.” for “control.”
# as §5
# Aspergillus terreus AT4 [10] = assay: MIC, YAG medium; settings: 24 h at 35° C, MIC banded into grades; for MIC: Aspergillus terreus, read-out: MIC grade, A. terreus
# Method: as §1, §2, §6
# as §4, with “cfu/mL for Aspergillus spp.” for “cfu/mL.”, “24” for “24-48”, “>70%” for “>80%”, “control. MICs are recorded as mg/L. In cases where the MIC of an organism is […] mg/L the MIC is repeated using a concentration range of 0.5-0.0005 mg/L.” for “control.”
# as §5
# [11] = system: Aspergillus fumigatus AF210; assay: MIC, YAG medium; settings: 24 h at 35° C, MIC banded into grades; for MIC: Aspergillus fumigatus, read-out: MIC grade, A. fumigatus 210
# Method: as §1, §2, §6
# as §4, with “cfu/mL for Aspergillus spp.” for “cfu/mL.”, “24” for “24-48”, “>70%” for “>80%”, “control. MICs are recorded as mg/L. In cases where the MIC of an organism is […] mg/L the MIC is repeated using a concentration range of 0.5-0.0005 mg/L.” for “control.”
# as §5
# Aspergillus flavus [12] = assay: MIC, YAG medium; settings: 24 h at 35° C, MIC banded into grades; for MIC: Aspergillus flavus, 24 h, read-out: MIC grade, A. flavus
# Method: as §1, §2, §6
# as §4, with “cfu/mL for Aspergillus spp.” for “cfu/mL.”, “24” for “24-48”, “>70%” for “>80%”, “control. MICs are recorded as mg/L. In cases where the MIC of an organism is […] mg/L the MIC is repeated using a concentration range of 0.5-0.0005 mg/L.” for “control.”
# as §5
Structure (SMILES),"MIC grade, A. niger (Aspergillus niger [1])","MIC grade, A. terreus 49 (Aspergillus terreus AT49 [2])","MIC grade, A. fumigatus [3]","MIC grade, A. terreus (Aspergillus terreus AT4 [4])","MIC grade, A. fumigatus 210 [5]","MIC grade, A. flavus (Aspergillus flavus [6])","MIC grade, A. niger (Aspergillus niger [7])","MIC grade, A. terreus 49 (Aspergillus terreus AT49 [8])","MIC grade, A. fumigatus [9]","MIC grade, A. terreus (Aspergillus terreus AT4 [10])","MIC grade, A. fumigatus 210 [11]","MIC grade, A. flavus (Aspergillus flavus [12])",MIC (Aspergillus niger [1]) [µg/mL],MIC (Aspergillus terreus AT49 [2]) [µg/mL],MIC [3] [µg/mL],MIC (Aspergillus terreus AT4 [4]) [µg/mL],MIC [5] [µg/mL],MIC (Aspergillus flavus [6]) [µg/mL],MIC (Aspergillus niger [7]) [µg/mL],MIC (Aspergillus terreus AT49 [8]) [µg/mL],other results
Cc1cc(C)nc(N2CCN(c3ccc(NC(=O)C(=O)c4c(-c5ccccc5)cc5n4CCCCC5)cc3)CC2)c1 [41 a],1 (a grade of 1 represents an MIC of greater than 10 mg/L),3 (A grade of 3 represents an MIC of less than 1 mg/L),2 (A grade of 2 represents an MIC of from 1 to 10 mg/L),2 (A grade of 2 represents an MIC of from 1 to 10 mg/L),1 (a grade of 1 represents an MIC of greater than 10 mg/L),1 (a grade of 1 represents an MIC of greater than 10 mg/L),3 (A grade of 3 represents an MIC of less than 1 mg/L),3 (A grade of 3 represents an MIC of less than 1 mg/L),3 (A grade of 3 represents an MIC of less than 1 mg/L),3 (A grade of 3 represents an MIC of less than 1 mg/L),3 (A grade of 3 represents an MIC of less than 1 mg/L),3 (A grade of 3 represents an MIC of less than 1 mg/L),,,,,,,,,
Cc1cc(C)nc(N2CCN(c3ccc(NC(=O)C(=O)c4cc(-c5ccccc5)c5n4CCCCC5)cc3)CC2)c1 [41 b],1 (a grade of 1 represents an MIC of greater than 10 mg/L),1 (a grade of 1 represents an MIC of greater than 10 mg/L),2 (A grade of 2 represents an MIC of from 1 to 10 mg/L),1 (a grade of 1 represents an MIC of greater than 10 mg/L),1 (a grade of 1 represents an MIC of greater than 10 mg/L),1 (a grade of 1 represents an MIC of greater than 10 mg/L),1 (a grade of 1 represents an MIC of greater than 10 mg/L),1 (a grade of 1 represents an MIC of greater than 10 mg/L),2 (A grade of 2 represents an MIC of from 1 to 10 mg/L),1 (a grade of 1 represents an MIC of greater than 10 mg/L),2 (A grade of 2 represents an MIC of from 1 to 10 mg/L),1 (a grade of 1 represents an MIC of greater than 10 mg/L),,,,,,,,,
"Cc1cc(C)nc(N2CCN(c3ccc(NC(=O)C(=O)c4cccn4-c4ccccc4)cc3)CC2)c1 [Example 2, N-{4-[4-(4,6-Dimethyl-pyridin-2-yl)-piperazin-1-yl]-phenyl}-2-oxo-2-(1-phenyl-1H-pyrrol-2-yl)-acetamide]",,,,,,,,,,,,,> 10,> 10,> 10,> 10,> 10,> 10,> 10,< 1,MIC [9]: 1 to 10 µg/mL; MIC (Aspergillus terreus AT4 [10]): < 1 µg/mL; MIC [11]: 1 to 10 µg/mL; MIC (Aspergillus flavus [12]): < 1 µg/mL
"Cc1cc(C)nc(N2CCN(c3ccc(NC(=O)C(=O)c4ccc(C)n4-c4ccccc4)cc3)CC2)c1 [Example 3, N-{4-[4-(4,6-Dimethyl-pyridin-2-yl)-piperazin-1-yl]-phenyl}-2-(5-methyl-1-phenyl-1H-pyrrol-2-yl)-2-oxo-acetamide]",,,,,,,,,,,,,> 10,1 to 10,> 10,1 to 10,> 10,> 10,> 10,< 1,MIC [9]: > 10 µg/mL; MIC (Aspergillus terreus AT4 [10]): < 1 µg/mL; MIC [11]: 1 to 10 µg/mL; MIC (Aspergillus flavus [12]): 1 to 10 µg/mL
